This note sets out measurements from patent US20090022694A1, “SIRT1 INHIBITION” (priority 2005, published 2009).

The structures appear in SMILES notation. pIC50: −log10 of the molar value.

The target of the assay is T1, SirT1 (Homo sapiens, UniProt Q96EB6).
T1 sequence (Q96EB6 1-747): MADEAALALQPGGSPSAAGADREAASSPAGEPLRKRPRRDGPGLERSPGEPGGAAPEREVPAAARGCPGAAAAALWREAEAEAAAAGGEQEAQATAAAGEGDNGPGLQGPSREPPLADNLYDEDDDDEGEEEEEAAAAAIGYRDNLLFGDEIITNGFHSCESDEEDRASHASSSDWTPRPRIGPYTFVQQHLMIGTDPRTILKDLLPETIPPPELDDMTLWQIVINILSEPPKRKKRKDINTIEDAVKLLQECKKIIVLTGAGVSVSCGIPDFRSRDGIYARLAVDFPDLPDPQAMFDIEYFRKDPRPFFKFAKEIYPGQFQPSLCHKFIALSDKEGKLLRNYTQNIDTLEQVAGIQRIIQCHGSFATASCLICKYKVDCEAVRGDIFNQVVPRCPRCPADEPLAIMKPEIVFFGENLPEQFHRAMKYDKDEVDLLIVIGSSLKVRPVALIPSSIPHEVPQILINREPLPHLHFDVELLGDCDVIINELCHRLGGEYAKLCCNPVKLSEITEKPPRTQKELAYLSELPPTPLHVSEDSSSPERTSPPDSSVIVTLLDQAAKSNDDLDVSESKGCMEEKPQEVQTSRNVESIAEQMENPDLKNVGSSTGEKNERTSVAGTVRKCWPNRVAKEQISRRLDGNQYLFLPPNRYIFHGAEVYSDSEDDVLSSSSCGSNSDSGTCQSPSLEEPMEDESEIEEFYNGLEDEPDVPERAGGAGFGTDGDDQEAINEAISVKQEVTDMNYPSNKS
Nature of the assay: SirT1 enzymatic assay, p53-382 Fluor-de-Lys (FdL). As to conditions: for pIC50: Table 1, exemplary compounds. In kind it is biochemical. The source says:
The ability of a compound to inhibit SIRT1 can be evaluated in many ways. In some embodiments, interaction with, e.g., binding of, SIRT1 can be assayed in vitro. The reaction mixture can include a SIRT1 co-factor such as NAD and/or a NAD analog. In other embodiments, the ability of the compound to inhibit an enzymatic function, e.g., deacetylase activity of SIRT1, can be assayed in vitro. Assays can include determining the IC50 of the compound.
An exemplary assay method includes a multi-well format of the SirT1 enzymatic assay that is based on the commercial “Fluor-de-Lys” assay principle by Biomol, which is fluorogenic (www.biomol.com/store/Product_Data_PDFs/ak500.pdf). In this assay, deacetylation of the s-amino function of a lysyl residue is coupled to a fluorogenic development step that is dependent on the unblocked ε-amino functionality and generates fluorescent aminomethylcoumarin. Fluorescence can be read on a commercial […]. Standard enzymological analyses can be used to determine Ki.

With `NC(=O)C1CCCc2c1[nH]c1ccc(Cl)cc21` (single isomer, unassigned) [isomer of compound 4 having a negative optical rotation, 6-Chloro-2,3,4,9-tetrahydro-1H-carbazole-1-carboxylic acid amide], the “activity against the SirT1 enzyme compared with the enantiomer” value (isomer with negative optical rotation vs enantiomer with positive optical rotation) is given as “greater activity against the SirT1 enzyme”. With `O=C(O)C1CCCc2c1[nH]c1ccc(O)cc21` (stereo not shown) [Compound 54, 6-hydroxy-2,3,4,9-tetrahydro-1H-carbazole-1-carboxylic acid], the pIC50 (usually the negative decadic logarithm of the IC50, by convention in mol/L) is under 5.00. Molecule `NC(=O)C1NCCc2c1[nH]c1ccc(Cl)cc21` (stereo not shown) [Compound 56, 6-chloro-2,3,4,9-tetrahydro-1H-pyrido[3,4-b]indole-1-carboxamide] gave a pIC50 of under 5.00.

In turn, `CC(=O)N1CCc2c([nH]c3ccc(Cl)cc23)C1C(N)=O` (stereo not shown) [Compound 58, 2-acetyl-6-chloro-2,3,4,9-tetrahydro-1H-pyrido[3,4-b]indole-1-carboxamide] had a pIC50 of under 5.00.
